This note sets out measurements from patent US20110173718A1, “HERBICIDE TOLERANT PLANTS” (SYNGENTA CROP PROTECTION, INC., priority 2008, published 2011).

Each structure is given as a SMILES string. Like-named read-outs stand apart in the source and are kept apart here.

The test system of this assay is weeds. In words: Glasshouse weed control, HST inhibitors alone and with A22, pre-emergence. The following applies: 14 DAT; for pest or weed control at 15.625 g/ha / pest or weed control at 62.5 g/ha / pest or weed control at 250 g/ha: 336 h. In kind it is in vivo. Summed up:
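Weeds grown in glasshouse trays (24-27 C day, 18-21 C night, ~15 h photoperiod) and track-sprayed in 0.2% X77 at […], pre-emergence or post-emergence at about 7-12 d. HPPD inhibitor A22 applied at 2 g/ha alone or mixed with HST herbicides. Damage scored 0–100% at 14 DAT; synergy calculated by Colby formula.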

The mark [1] stands for this setting: BRAPL, HST inhibitor rate 15.625 g/ha, read-out: BRAPL Obs, % control score.
Where [2] appears, read: BRAPL, HST inhibitor rate 62.5 g/ha, read-out: BRAPL Obs, % control score.
The mark [3] stands for this setting: BRAPL, HST inhibitor rate 250 g/ha, read-out: BRAPL Obs, % control score.
Setting [4] is: PANMI, HST inhibitor rate 15.625 g/ha, read-out: PANMI Obs, % control score.
[5] abbreviates: PANMI, HST inhibitor rate 62.5 g/ha, read-out: PANMI Obs, % control score.
The mark [6] stands for this setting: PANMI, HST inhibitor rate 250 g/ha, read-out: PANMI Obs, % control score.
[7] abbreviates: SIDSP, HST inhibitor rate 15.625 g/ha, read-out: SIDSP Obs, % control score.
Setting [8] is: SIDSP, HST inhibitor rate 62.5 g/ha, read-out: SIDSP Obs, % control score.
Where [9] appears, read: SIDSP, HST inhibitor rate 250 g/ha, read-out: SIDSP Obs, % control score.
Setting [10] is: Digitaria sanguinalis, DIGSA, HST inhibitor rate 15.625 g/ha, read-out: DIGSA Obs, % control score.
[11] abbreviates: Digitaria sanguinalis, DIGSA, HST inhibitor rate 62.5 g/ha, read-out: DIGSA Obs, % control score.
Setting [12] is: Digitaria sanguinalis, DIGSA, HST inhibitor rate 250 g/ha, read-out: DIGSA Obs, % control score.
[13] abbreviates: Echinochloa crus-galli, ECHCG, HST inhibitor rate 15.625 g/ha, read-out: ECHCG Obs, % control score.
Where [14] appears, read: Echinochloa crus-galli, ECHCG, HST inhibitor rate 62.5 g/ha, read-out: ECHCG Obs, % control score.
Where [15] appears, read: Echinochloa crus-galli, ECHCG, HST inhibitor rate 250 g/ha, read-out: ECHCG Obs, % control score.
[16] abbreviates: Setaria faberi, SETFA, HST inhibitor rate 15.625 g/ha, read-out: SETFA Obs, % control score.
Where [17] appears, read: Setaria faberi, SETFA, HST inhibitor rate 62.5 g/ha, read-out: SETFA Obs, % control score.
Setting [18] is: Setaria faberi, SETFA, HST inhibitor rate 250 g/ha, read-out: SETFA Obs, % control score.

Consider `O=c1c(-c2c(F)ccc(Br)c2Cl)c(O)c2cccnc2n1CC(F)F` [Compound 2.15], for which the pest or weed control at 15.625 g/ha under setting [1] turned out to be 0%; the pest or weed control at 15.625 g/ha under setting [4] was 0%; the pest or weed control at 15.625 g/ha under setting [7] turned out to be 0%; the pest or weed control at 15.625 g/ha under setting [10] is 0%; the pest or weed control at 15.625 g/ha under setting [13] was determined as 0%; the pest or weed control at 15.625 g/ha under setting [16] is 0%. Besides, the pest or weed control at 62.5 g/ha came out at 0% under setting [2]; 0% under setting [5]; 0% under setting [8]; 0% under setting [11]; 0% under setting [14]; 0% under setting [17]. Also, the pest or weed control at 250 g/ha is, setting by setting: under setting [3], 0%; under setting [6], 0%; under setting [9], 0%; under setting [12], 0%; under setting [15], 0%; under setting [18], 0%.
For the compound `O=c1c(-c2c(Cl)ccc(Cl)c2Cl)c(O)c2nccnc2n1CC(F)F` [Compound 2.14], the pest or weed control at 15.625 g/ha runs as follows: under setting [1], 0%; under setting [4], 0%; under setting [7], 0%; under setting [10], 0%; under setting [13], 0%; under setting [16], 0%. In addition, the pest or weed control at 62.5 g/ha came to 2% under setting [2]; 0% under setting [5]; 0% under setting [8]; 0% under setting [11]; 5% under setting [14]; 2% under setting [17]. Moreover, the pest or weed control at 250 g/ha runs as follows: under setting [3], 20%; under setting [6], 2%; under setting [9], 5%; under setting [12], 5%; under setting [15], 50%; under setting [18], 20%.
For the compound `O=c1c(-c2cc(C(F)(F)F)ccc2Cl)c(O)c2nccnc2n1CC(F)F` [Compound 2.9], the pest or weed control at 15.625 g/ha is, setting by setting: under setting [1], 0%; under setting [4], 0%; under setting [7], 0%; under setting [10], 0%; under setting [13], 0%; under setting [16], 0%. Moreover, the pest or weed control at 62.5 g/ha came to 2% under setting [2]; 0% under setting [5]; 0% under setting [8]; 0% under setting [11]; 0% under setting [14]; 0% under setting [17]. Further, the pest or weed control at 250 g/ha runs as follows: under setting [3], 50%; under setting [6], 60%; under setting [9], 40%; under setting [12], 65%; under setting [15], 60%; under setting [18], 30%.
Turning to `O=c1c(-c2c(F)ccc(F)c2Cl)c(O)c2nccnc2n1CC(F)F` [Compound 2.3], the “BRAPL Obs, % control score” value reads like this: (BRAPL, HST inhibitor rate 15.625 g/ha) 0%; (BRAPL, HST inhibitor rate 62.5 g/ha) 2%; (BRAPL, HST inhibitor rate 250 g/ha) 40%. The “DIGSA Obs, % control score” value by setting is: (DIGSA, HST inhibitor rate 15.625 g/ha) 0%; (DIGSA, HST inhibitor rate 62.5 g/ha) 0%; (DIGSA, HST inhibitor rate 250 g/ha) 40%. Besides, the “ECHCG Obs, % control score” value by setting is: (ECHCG, HST inhibitor rate 15.625 g/ha) 0%; (ECHCG, HST inhibitor rate 62.5 g/ha) 10%; (ECHCG, HST inhibitor rate 250 g/ha) 50%. Also, the “PANMI Obs, % control score” value was 0% (PANMI, HST inhibitor rate 15.625 g/ha); 0% (PANMI, HST inhibitor rate 62.5 g/ha); 50% (PANMI, HST inhibitor rate 250 g/ha). In addition, the “SETFA Obs, % control score” value (SETFA, HST inhibitor rate 15.625 g/ha) turned out to be 0%; the “SETFA Obs, % control score” value (SETFA, HST inhibitor rate 62.5 g/ha) amounted to 5%; the “SETFA Obs, % control score” value (SETFA, HST inhibitor rate 250 g/ha) stood at 30%. Also, the “SIDSP Obs, % control score” value runs as follows: (SIDSP, HST inhibitor rate 15.625 g/ha) 0%; (SIDSP, HST inhibitor rate 62.5 g/ha) 0%; (SIDSP, HST inhibitor rate 250 g/ha) 20%.
As for `O=c1c(-c2c(F)ccc(Br)c2Cl)c(O)c2nccnc2n1CC(F)F` [Compound 2.8], the pest or weed control at 15.625 g/ha reads like this: under setting [1], 0%; under setting [4], 0%; under setting [7], 0%; under setting [10], 0%; under setting [13], 0%; under setting [16], 0%. Further, the pest or weed control at 62.5 g/ha under setting [2] was 1%; the pest or weed control at 62.5 g/ha under setting [5] came out at 0%; the pest or weed control at 62.5 g/ha under setting [8] was found to be 0%; the pest or weed control at 62.5 g/ha under setting [11] was found to be 0%; the pest or weed control at 62.5 g/ha under setting [14] stood at 2%; the pest or weed control at 62.5 g/ha under setting [17] amounted to 0%. Further, the pest or weed control at 250 g/ha reads like this: under setting [3], 15%; under setting [6], 60%; under setting [9], 2%; under setting [12], 30%; under setting [15], 50%; under setting [18], 10%.
